Source: US20250230159A1, “FUSED HETEROCYCLIC COMPOUNDS AS MODULATORS OF RAS SIGNALLING” (Shenzhen Ionova Life Science Co., Ltd., priority 2022, published 2025)
Like-named read-outs stand apart in the source and are kept apart here.

How the values were obtained:
[1] = molecular target: KRAS-G12C/SOS1 interaction (Homo sapiens (Human), UniProt Q07889); test: Protein-Protein Interaction (PPI) assay, SOS1-KRAS binding assay kit (HTRF)
[2] = system: pERK in Hela cells; test: Phospho-ERK (p-ERK) assay in Hela cells; assay type: cell-based; details: Homo sapiens, β-actin normalized
Description: This Example illustrates that exemplary compounds of the present invention prevent KRas-mediated GTP nucleotide exchange mediated by SOS1 to inhibit KRas activity, thereby inhibiting the generation of the downstream effector pERK.
Hela cells (23,000/w) were seeded in a black clear flat bottom 96-well cell culture plate (Corning, #3904) and incubated at 37° C. overnight. At day 2, cells were dosed with compounds of Formula (I) with a 10 μM starting concentration and serially diluted 3× for a total of 9 concentrations. The cells were incubated for 1 hour with the compounds solubilized in DMSO at 37° C. Cells were immediately fixed by adding 100 μL of 8% formaldehyde to all wells in a fume hood and the plates were incubated for 1 hr at room temperature. The formaldehyde was discarded from the plates and washed 5 times and each time for 5 min with 200 μL of Triton Washing Solution (0.1% Triton in PBS) each time to permeabilize the cells. Cells were then blocked with 150 μL of Odyssey blocking buffer (LI-COR Biosciences #927-50010) at room temperature on a shaker. The blocking buffer was discarded and 50 μL of primary antibodies pERK (cell signaling Technology #4370; Rabbit, 1:500) and β-actin (AF5001; Mouse, 1:2000) diluted in Odyssey blocking buffer was added. The plates were incubated overnight at 4° C. on a shaker.
On day 3, the primary antibody solution was removed. Each plate was washed 5× times with 200 μL of 1×PBST (PBS+0.1% Tween 20) and incubated with 50 μL of secondary antibodies: Anti-Rabbit (LI-COR Biosciences #926-32211) and Anti-Mouse (LI-COR Biosciences #68070) at 1:1000 dilution in Odyssey blocking buffer at room temperature on a shaker for 1 hour (protected from light). The secondary antibody solution as removed and each plate was washed with PBST 5× times. Any liquid remaining was discarded and the plate was imaged using the Licor Odyssey machine according to the manufacturer's instruction, using a set focus length at 3.5 mm and both 800 nm and 700 nm filters. The 3-actin normalized scan values for each well were divided by the average of vehicle wells to get the % of p-ERK inhibition. The IC50 values were then calculated with the Graph pad Prism software. In general, p-ERK IC50 data are in line with the PPI IC50 data.

Sequence of KRAS-G12C/SOS1 interaction (Q07889 whole entry, stated change not applied): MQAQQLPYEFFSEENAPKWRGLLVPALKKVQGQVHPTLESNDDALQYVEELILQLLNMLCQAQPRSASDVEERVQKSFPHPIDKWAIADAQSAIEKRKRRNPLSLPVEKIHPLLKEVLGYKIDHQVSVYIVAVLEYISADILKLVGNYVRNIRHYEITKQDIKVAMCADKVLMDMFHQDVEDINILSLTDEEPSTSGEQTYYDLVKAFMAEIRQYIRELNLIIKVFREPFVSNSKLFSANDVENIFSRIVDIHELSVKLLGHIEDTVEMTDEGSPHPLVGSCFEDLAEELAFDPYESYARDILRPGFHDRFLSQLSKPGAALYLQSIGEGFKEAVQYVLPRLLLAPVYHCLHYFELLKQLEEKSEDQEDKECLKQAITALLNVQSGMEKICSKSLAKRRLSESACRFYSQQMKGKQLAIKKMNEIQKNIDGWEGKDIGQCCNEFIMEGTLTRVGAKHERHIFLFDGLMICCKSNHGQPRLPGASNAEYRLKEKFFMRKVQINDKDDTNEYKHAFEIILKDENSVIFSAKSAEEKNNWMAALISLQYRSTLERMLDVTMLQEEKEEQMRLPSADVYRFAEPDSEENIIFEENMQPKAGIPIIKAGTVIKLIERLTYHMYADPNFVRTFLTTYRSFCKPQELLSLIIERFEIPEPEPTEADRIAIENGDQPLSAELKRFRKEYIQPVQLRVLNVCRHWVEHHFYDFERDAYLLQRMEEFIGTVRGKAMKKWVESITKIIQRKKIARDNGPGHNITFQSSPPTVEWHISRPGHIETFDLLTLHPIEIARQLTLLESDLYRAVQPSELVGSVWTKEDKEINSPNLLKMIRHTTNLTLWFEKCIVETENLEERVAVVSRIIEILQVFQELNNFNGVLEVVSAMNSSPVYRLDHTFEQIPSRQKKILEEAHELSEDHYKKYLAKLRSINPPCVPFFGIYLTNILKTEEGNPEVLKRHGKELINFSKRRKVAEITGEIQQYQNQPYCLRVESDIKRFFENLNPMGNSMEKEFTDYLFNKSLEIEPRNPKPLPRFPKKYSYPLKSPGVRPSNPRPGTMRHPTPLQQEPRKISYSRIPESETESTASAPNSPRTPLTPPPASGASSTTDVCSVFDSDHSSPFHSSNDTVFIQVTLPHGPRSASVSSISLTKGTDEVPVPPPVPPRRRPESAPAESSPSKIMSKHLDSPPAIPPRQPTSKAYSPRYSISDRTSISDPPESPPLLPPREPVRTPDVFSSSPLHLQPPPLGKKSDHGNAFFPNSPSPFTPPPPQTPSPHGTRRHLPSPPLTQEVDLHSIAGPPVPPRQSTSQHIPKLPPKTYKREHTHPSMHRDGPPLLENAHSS

Row | Structure (SMILES) | IC50 ([1]; read-out: PPI Assay IC50) | IC50 ([2]; Table 1, 1 hour with compound) | IC50 [1] | IC50 ([2]; Table 2, 1 hour with compound)
1 | CC(=O)N1CCC(c2cc3c(N[C@H](C)c4cccc(C(F)F)c4F)nc(C)nc3n3cnnc23)C1 (some centres unmarked) [Example 137] | < 100 nM | > 100 nM |  | 
2 | Cc1nc(N[C@H](C)c2cccc(C(F)F)c2F)c2cc(C(=O)N3C[C@H]4COC[C@H]4C3)c3ncnn3c2n1 [Example 29] | < 100 nM | < 100 nM |  | 
3 | C[C@@H](Nc1ncnc2c1cc(N1CCOC[C@@H]1C)c1nncn12)c1cc(N)cc(C(F)(F)F)c1 [Example 159] | < 100 nM | > 100 nM |  | 
4 | Cc1nc(N[C@H](C)c2cccc(C(F)F)c2F)c2cc(C3CCN(C(=O)N(C)C)CC3)c3nncn3c2n1 [Example 69] | < 100 nM | > 100 nM |  | 
5 | Cc1nc(N[C@H](C)c2cccc(C(F)F)c2F)c2cc(C(=O)N3CCN(C)CC3)c3ncnn3c2n1 [Example 19] | < 100 nM | > 100 nM |  | 
6 | CC(=O)N1CCC(c2cc3c(N[C@H](C)c4cccc(C(F)F)c4F)ncnc3n3nnnc23)CC1 [Example 145] | < 100 nM | < 100 nM |  | 
7 | CC(=O)N1CCC(c2cc3c(N[C@H](C)c4cccc(C(F)F)c4F)nc(C)nc3n3nnnc23)CC1 [Example 142] | < 100 nM | > 100 nM |  | 
8 | Cc1nc(N[C@H](C)c2cccc(C(F)F)c2F)c2cc(C(=O)N3C4CC3CN(C)C4)c3nnnn3c2n1 [Example 66] | < 100 nM | > 100 nM |  | 
9 | Cc1nc2c(N3CC4(CC4)OCC3=O)cc3c(N[C@H](C)c4cccc(C(F)F)c4F)ncnc3n2n1 [Example 157] | < 100 nM | < 100 nM |  | 
10 | COC1(c2cc3c(N[C@H](C)c4cccc(C(F)F)c4F)nc(C)nc3n3c(C)nnc23)CCN(C(C)=O)CC1 [Example 124] | < 100 nM | < 100 nM |  | 
11 | Cc1nc(N[C@H](C)c2cccc(C(F)F)c2F)c2cc(C(=O)N3CCC4(COC4)C3)c3ncnn3c2n1 [Example 33] | < 100 nM | > 100 nM |  | 
12 | Cc1nc(N[C@H](C)c2cc(N)cc(C(F)(F)F)c2)c2cc(C(=O)N3CCOCC3)c3ncnn3c2n1 [Example 2, (R)-(6-((1-(3-amino-5-(trifluoromethyl)phenyl)ethyl)amino)-8-methyl-[1,2,4]triazolo[1′,5′:1,6]pyrido[2,3-d]pyrimidin-4-yl)(morpholino)methanone] | < 100 nM | > 100 nM |  | 
13 | Cc1nc(N[C@H](C)c2cccc(C(F)F)c2F)c2cc(C(=O)N(C)C)c3nncn3c2n1 [Example 50, (R)-4-((1-(3-(difluoromethyl)-2-fluorophenyl)ethyl)amino)-N,N,2-trimethyl-[1,2,4]triazolo[4′,3′:1,6]pyrido[2,3-d]pyrimidine-6-carboxamide] | < 100 nM | > 100 nM |  | 
14 | CC(=O)N1CCC(F)(c2cc3c(N[C@H](C)c4cccc(C(F)F)c4F)nc(C)nc3n3nnnc23)CC1 [Example 116] | < 100 nM | < 100 nM |  | 
15 | CCOC(=O)c1cc2c(N[C@H](C)c3cc(N)cc(C(F)(F)F)c3)nc(C)nc2n2ncnc12 [Example 1, Ethyl (R)-6-((1-(3-amino-5-(trifluoromethyl)phenyl)ethyl)amino)-8-methyl-[1,2,4]triazolo[1′,5′:1,6]pyrido[2,3-d]pyrimidine-4-carboxylate] |  |  | > 100 nM | > 100 nM
16 | Cc1nc(N[C@H](C)c2cccc(C(F)F)c2F)c2cc(N3CCS(=O)(=O)CC3)c3nnnn3c2n1 [Example 93] | < 100 nM | > 100 nM |  | 
17 | C[C@@H](Nc1ncnc2c1cc(N1CCS(=O)(=O)CC1)c1nnnn12)c1cccc(C(F)F)c1F [Example 96] | < 100 nM | > 100 nM |  | 
18 | Cc1nc(N[C@H](C)c2cccc(C(F)F)c2F)c2cc(N3CCOCC3=O)c3nncn3c2n1 [Example 163] | < 100 nM | < 100 nM |  | 
19 | Cc1nc2c(C3(C(F)(F)F)CC3)cc3c(N[C@H](C)c4cccc(C(F)F)c4F)ncnc3n2n1 [Example 169, (R)—N-(1-(3-(difluoromethyl)-2-fluorophenyl)ethyl)-2-methyl-4-(1-(trifluoromethyl)cyclopropyl)-[1,2,4]triazolo[1′,5′:1,6]pyrido[2,3-d]pyrimidin-6-amine] | < 100 nM | < 100 nM |  | 
20 | Cc1nc2c(N3CCOCC3)cc3c(N[C@H](C)c4cccc(C(F)F)c4F)ncnc3n2n1 [Example 154] | < 100 nM | < 100 nM |  | 

Row | Structure (SMILES) | IC50 ([1]; read-out: PPI Assay IC50) | IC50 ([2]; Table 1, 1 hour with compound) | IC50 [1] | IC50 ([2]; Table 2, 1 hour with compound)
21 | C[C@@H](Nc1ncnc2c1cc(O[C@H]1CCOC1)c1nncn12)c1cccc(C(F)F)c1F [Example 88] | < 100 nM | < 100 nM |  | 
22 | Cc1nc(N[C@H](C)c2cccc(C(F)F)c2F)c2cc(C(=O)N3CCOCC3)c3nnnn3c2n1 [Example 58] | < 100 nM | < 100 nM |  | 
23 | C[C@@H](Nc1ncnc2c1cc(N1CCN(C)C(=O)C1)c1nncn12)c1cccc(C(F)F)c1F [Example 164] | < 100 nM | < 100 nM |  | 
24 | Cc1nc(N[C@H](C)c2cccc(C(F)F)c2F)c2cc(C3CCS(=O)(=O)CC3)c3nncn3c2n1 [Example 152] | < 100 nM | > 100 nM |  | 
25 | COCC(=O)N1CCC(c2cc3c(N[C@H](C)c4cccc(C(F)F)c4F)nc(C)nc3n3cnnc23)CC1 [Example 68] | < 100 nM | > 100 nM |  | 
26 | Cc1nc(N[C@H](C)c2cc(N)cc(C(F)(F)F)c2)c2cc(N3CCOCC3)c3nnnn3c2n1 [Example 95] | < 100 nM | < 100 nM |  | 
27 | CC(=O)N1CCC(c2cc3c(N[C@H](C)c4cccc(C(F)F)c4F)nc(C)nc3n3cnnc23)CC1 [Example 67, (R)-1-(4-(4-((1-(3-(difluoromethyl)-2-fluorophenyl)ethyl)amino)-2-methyl-[1,2,4]triazolo[4′,3′:1,6]pyrido[2,3-d]pyrimidin-6-yl)piperidin-1-yl)ethan-1-one] | < 100 nM | > 100 nM |  | 
28 | Cc1nc(N[C@H](C)c2cccc(C(F)F)c2F)c2cc(C(=O)N3[C@@H](C)COC[C@@H]3C)c3ncnn3c2n1 [Example 13] | < 100 nM | < 100 nM |  | 
29 | Cc1nc2c(N3CCOCC3=O)cc3c(N[C@H](C)c4cccc(C(F)F)c4F)ncnc3n2n1 [Example 155] | < 100 nM | < 100 nM |  | 
30 | CC(=O)N1CCC(O)(c2cc3c(N[C@H](C)c4cccc(C(F)F)c4F)nc(C)nc3n3cnnc23)CC1 [Example 107, (R)-1-(4-(4-((1-(3-(difluoromethyl)-2-fluorophenyl)ethyl)amino)-2-methyl-[1,2,4]triazolo[4′,3′:1,6]pyrido[2,3-d]pyrimidin-6-yl)-4-hydroxypiperidin-1-yl)ethan-1-one] | < 100 nM | < 100 nM |  | 
31 | Cc1nc(N[C@H](C)c2cccc(C(F)F)c2F)c2cc(C(=O)N(C)C)c3nnnn3c2n1 [Example 55, (R)-6-((1-(3-(difluoromethyl)-2-fluorophenyl)ethyl)amino)-N,N,8-trimethyltetrazolo[1′,5′:1,6]pyrido[2,3-d]pyrimidine-4-carboxamide] | < 100 nM | > 100 nM |  | 
32 | Cc1nc(N[C@H](C)c2cccc(C(F)(F)F)c2C)c2cc(C(=O)N3CC4(COC4)C3)c3ncnn3c2n1 [Example 38] | < 100 nM | > 100 nM |  | 
33 | C[C@@H](Nc1ncnc2c1cc(C1(C(F)F)CC1)c1nncn12)c1cccc(C(F)F)c1F [Example 173] | < 100 nM | < 100 nM |  | 
34 | C[C@@H](Nc1ncnc2c1cc(C1(C(F)(F)F)CC1)c1nncn12)c1cccc(C(F)F)c1F [Example 172] | < 100 nM | < 100 nM |  | 
35 | CC(=O)N1CCN(c2cc3c(N[C@H](C)c4cccc(C(F)F)c4F)ncnc3n3nnnc23)CC1 [Example 99] | < 100 nM | < 100 nM |  | 
36 | Cc1nc(N[C@H](C)c2cccc(C(F)F)c2F)c2cc(C(=O)N3CCS(=O)(=O)CC3)c3ncnn3c2n1 [Example 18] | < 100 nM | > 100 nM |  | 
37 | Cc1nc(N[C@H](C)c2cccc(C(F)F)c2F)c2cc(C3=CC[S+]([O-])CC3)c3nncn3c2n1 (stereo partly drawn) [Example 149, 4-(4-(((R)-1-(3-(difluoromethyl)-2-fluorophenyl)ethyl)amino)-2-methyl-[1,2,4]triazolo[4′,3′:1,6]pyrido[2,3-d]pyrimidin-6-yl)-3,6-dihydro-2H-thiopyran 1-oxide] |  |  | > 100 nM | > 100 nM
38 | C[C@@H](Nc1ncnc2c1cc(C1(C)CCS(=O)(=O)CC1)c1nncn12)c1cccc(C(F)F)c1F [Example 129] | < 100 nM | < 100 nM |  | 
39 | Cc1nc(N[C@H](C)c2cccc(C(F)F)c2F)c2cc(C(=O)N3CC4(COC4)C3)c3ncnn3c2n1 [Example 27] | < 100 nM | < 100 nM |  | 
40 | Cc1nc(N[C@H](C)c2cccc(C(F)F)c2F)c2cc(C(=O)N3CC4(COC4)C3)c3nncn3c2n1 [Example 51] | < 100 nM | > 100 nM |  | 
